Where two headings read alike, the source gives them in different places. Marks after values point to notes of the source that are not given here.
How the values were obtained:
[1] = Balanced, randomized 4-phase cross-over study, Profile of Mood State (POMS) rating scale after intravenous administration; type: in vivo, healthy male volunteers; settings: for composite "Dysphoria" ratings: POMS Anger-Hostility plus Depression plus Tension-Anxiety, compared with placebo, Figure 3; for vigor ratings: POMS Vigor-Activity, compared with 1-MPH and placebo, Figure 2; for effect on "Energy": POMS composite score (Vigor-Activity minus Fatigue-Inertia), Figure 1; for rank order of ratings of the three components of "Dysphoria" (Tension, Depression and Anger): four treatments, same order for each component, Figure 4
Procedure: A balanced, randomized 4-phase cross-over study was carried out in 12 healthy male volunteers who each received intravenous administrations of dl-MPH, d-threo-methylphenidate (d-MPH), 1-MPH and placebo. The Profile of Mood State (POMS) rating scale was used to estimate pharmacodynamic factors including Anger-Hostility, Confusion-Bewilderment, Depression-Dejection, Fatigue-Inertia, Tension-Anxiety, and Vigor-Activity. In addition composite scores were also produced for "Energy" ("Vigor-Activity" minus "Fatigue-Inertia") and 'Dysphoria" ("Anger-Hostility" plus […] plus "Tension-Anxiety").
This paradox apparently arose because d-MPH enhanced both components of "Energy" (Vigor-Activity and Fatigue-Inertia) over the test period.
The Fatigue-Inertia factor was not a simple rebound phenomenon.
There were very robust effects of drug condition on composite "Dysphoria" ratings. The d-MPH and to a lesser extent dl-MPH both increased "Dysphoria" compared with the placebo or 1-MPH.
Figure 4 depicts the response of the three components of "Dysphoria" (Tension, Depression and Anger) to the four treatments. […] Thus it appears that the overall pharmacodynamic effect of dl-MPH may represent an interaction between the "Dysphoric" effects of d-MPH and the mildly euphoric effects of 1-MPH. It is conceivable that the 1-MPH will emerge as euphoriant or antidepressant in subjects with higher baseline "Dysphoria" scores such as depressed patients in whom the dose of 1-MPH will have to be titrated.

[2] = oral, cited from earlier work
[3] = mean ±SD in plasma; intravenous 10mg dl-MPH; 11 healthy male volunteers; cited from earlier work
[4] = cited from earlier work
[5] = target: central dopamine transporters (Homo sapiens, UniProt Q01959); settings: after oral administration of dl-MPH in humans; cited from earlier work
central dopamine transporters, sequence (Q01959 whole entry): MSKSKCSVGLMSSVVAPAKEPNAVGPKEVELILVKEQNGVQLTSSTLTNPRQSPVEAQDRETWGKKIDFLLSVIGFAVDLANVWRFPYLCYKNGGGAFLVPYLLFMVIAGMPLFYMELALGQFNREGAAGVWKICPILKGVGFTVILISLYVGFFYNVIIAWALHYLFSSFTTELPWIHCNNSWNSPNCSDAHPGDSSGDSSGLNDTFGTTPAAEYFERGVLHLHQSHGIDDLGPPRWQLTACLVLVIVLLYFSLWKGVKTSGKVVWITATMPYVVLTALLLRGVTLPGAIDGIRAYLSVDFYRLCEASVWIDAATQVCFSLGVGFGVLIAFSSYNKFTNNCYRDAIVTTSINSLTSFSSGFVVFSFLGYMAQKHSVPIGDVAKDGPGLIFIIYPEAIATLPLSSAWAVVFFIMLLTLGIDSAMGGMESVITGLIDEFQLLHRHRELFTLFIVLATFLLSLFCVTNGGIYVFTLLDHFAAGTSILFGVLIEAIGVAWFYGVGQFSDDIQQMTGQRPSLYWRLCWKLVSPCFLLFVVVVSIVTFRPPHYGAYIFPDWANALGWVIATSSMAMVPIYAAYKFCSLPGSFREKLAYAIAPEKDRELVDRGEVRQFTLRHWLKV

SMILES | composite "Dysphoria" ratings [1] | vigor ratings [1] | effect on "Energy" [1] | rank order of ratings of the three components of "Dysphoria" (Tension, Depression and Anger) [1] | Hamilton depression scale decreased ([2]; 3 subjects, decreased minimally) | Hamilton depression scale decreased ([2]; 7 subjects, depressive symptoms decreased markedly) | benefit in depressed patients ([2]; n = 16) | CL [3] | CLR [3] | MRT [3] | Vdss [3] | concentrations in plasma and brain ([4]; after oral administration of dl-MPH, extensive enantioselective first pass metabolism) | blocking central dopamine transporters [5] | absolute bioavailability (F) ([4]; after oral administration of the racemic drug)
COC(=O)[C@H](c1ccccc1)[C@H]1CCCCN1 (racemic) [dl-MPH, dl-threo-methylphenidate] | increased | significantly different | enhanced | 1-MPH < placebo < dl-MPH < d-MPH | < 30% | > 55% | statistically and clinically significant |  |  |  |  |  |  | 
COC(=O)[C@@H](c1ccccc1)[C@@H]1CCCCN1 [1-MPH, 2S,2'S-methyl 2-phenyl-2-(2'-piperidyl)acetate] | numerically lower |  |  | 1-MPH < placebo < dl-MPH < d-MPH |  |  |  | 0.73±0.028^h L/kg.h^-1 | 0.005±0.003^c l/kg.h^-1 | 2.44±0.51^b h | 1.80±0.91^b L/kg | very low |  | 
COC(=O)[C@H](c1ccccc1)[C@H]1CCCCN1 [d-MPH, d-threo-methylphenidate] | increased | significantly different | not strongly energizing | 1-MPH < placebo < dl-MPH < d-MPH |  |  |  |  | 0.005±0.003 l/kg.h^-1 | 6.53 ± 1.62 h | 2.65 ± 1.11 L/kg |  | very effective | 0.25
